Laboratory results taken from US4087417A, “Hexapeptides and methods for their production” (Parke, Davis & Company, priority 1976, dated 1978).

Tested on: LRF (luteinizing hormone release factor) induced luteinizing hormone (LH) release
Assay: In vitro LRF antagonist test in rat anterior pituitary cell cultures
Format: cell-based
Text: Hexapeptides of this invention were screened for LRF antagonist activity in vitro using rat anterior pituitary cell cultures as described by Vale et. al. [Endocrinology, 91, 562 (1972)]. The inhibition of LRF (luteinizing hormone release factor) induced luteinizing hormone (LH) release into the culture medium is the endpoint of this in vitro bioassay.

[1] = compound 1×10^-7 molar, run with LRF Control 3.5×10^-10 molar
[2] = compound 2×10^-7 molar, run with LRF Control 3.5×10^-10 molar
[3] = compound 3.5×10^-7 molar, run with LRF Control 3.5×10^-10 molar
[4] = compound 6×10^-7 molar, run with LRF Control 3.5×10^-10 molar
[5] = compound 6×10^-8 molar, run with LRF Control 3.5×10^-10 molar
[6] = compound 1×10^-6 molar, run with LRF Control 2.5×10^-10 molar

## LRF Control: luteinizing hormone releasing factor, also referred to as luteinizing hormone releasing hormone, LH-RH; stimulates secretion of luteinizing hormone (QHWSYGLRPG; Gonadoliberin-1; UniProt P01148 24-33, looked up) [reference compound]
LRF alone 2.5×10^-10 molar (first run)
  LH Value: 38.98 ng/mL
LRF alone 3.5×10^-10 molar (second run)
  LH Value: 41.70 ng/mL

## N^α -t-Butoxycarbonyl-L-tryptophyl-N^im -benzyl-L-histidyl-O-benzyl-L-seryl-O-benzyl-L-tyrosyl-L-prolyl-D-alanine N-ethylamide
[1]
  % LH Release Inhibition: 49%
  LH Value: 27.52 ng/mL
[2]
  % LH Release Inhibition: 93%
  LH Value: 14.63 ng/mL
[3]
  % LH Release Inhibition: 104%
  LH Value: 11.46 ng/mL
[4]
  % LH Release Inhibition: 106%
  LH Value: 10.90 ng/mL
[5]
  % LH Release Inhibition: 11%
  LH Value: 38.53 ng/mL

## N^α -t-Butoxycarbonyl-L-tryptophyl-N^im -benzyl-L-histidyl-O-benzyl-L-seryl-O-benzyl-L-tyrosyl-L-prolyl-D-alanine methyl ester
[6]
  % LH Release Inhibition: 85%
  LH Value: 11.04 ng/mL
